Assay results published in patent US6750219B1, “Ω-amino-α-hydroxycarboxylic acid derivatives having integrin ανβ3 antagonistic activity” (Meiji Seika Kaisha, Ltd., priority 1999, dated 2004).

Legend:
GP IIb/IIIa = GP IIb/IIIa (Homo sapiens, UniProt P05106+P08514); test: GP IIb/IIIa antagonistic activity (Pharmacological Test 2 in WO 94/21599); format: binding
Description: Pharmacological Test Example 2: GP IIb/IIIa Antagonistic Activity and Human Platelet Aggregation Inhibitory Activity
GP IIb/IIIa antagonistic activity was measured for the compounds according to the present invention. The measurement of the GP IIb/IIIa antagonistic activity was carried out according to the method described in Pharmacological Test 2 in WO 94/21599.

solubility in water = format: physicochemical; settings: dihydrochloride; data omitted
[1] = target: T1, integrin αvβ3 (vitronectin receptor purified from the human placenta) (Homo sapiens, UniProt P05106+P06756); test: αvβ3 binding assay (vitronectin-vitronectin receptor binding assay); settings: vitronectin binding to vitronectin receptor purified from human placenta; read-out: integrin αvβ3 antagonistic activity (IC50)
T1 construct: a vitronectin receptor (protein content: 118 mg/ml) purified from the human placenta; from tissue; host or cells: human placenta
T1 sequence (P06756 31-889 limits assumed): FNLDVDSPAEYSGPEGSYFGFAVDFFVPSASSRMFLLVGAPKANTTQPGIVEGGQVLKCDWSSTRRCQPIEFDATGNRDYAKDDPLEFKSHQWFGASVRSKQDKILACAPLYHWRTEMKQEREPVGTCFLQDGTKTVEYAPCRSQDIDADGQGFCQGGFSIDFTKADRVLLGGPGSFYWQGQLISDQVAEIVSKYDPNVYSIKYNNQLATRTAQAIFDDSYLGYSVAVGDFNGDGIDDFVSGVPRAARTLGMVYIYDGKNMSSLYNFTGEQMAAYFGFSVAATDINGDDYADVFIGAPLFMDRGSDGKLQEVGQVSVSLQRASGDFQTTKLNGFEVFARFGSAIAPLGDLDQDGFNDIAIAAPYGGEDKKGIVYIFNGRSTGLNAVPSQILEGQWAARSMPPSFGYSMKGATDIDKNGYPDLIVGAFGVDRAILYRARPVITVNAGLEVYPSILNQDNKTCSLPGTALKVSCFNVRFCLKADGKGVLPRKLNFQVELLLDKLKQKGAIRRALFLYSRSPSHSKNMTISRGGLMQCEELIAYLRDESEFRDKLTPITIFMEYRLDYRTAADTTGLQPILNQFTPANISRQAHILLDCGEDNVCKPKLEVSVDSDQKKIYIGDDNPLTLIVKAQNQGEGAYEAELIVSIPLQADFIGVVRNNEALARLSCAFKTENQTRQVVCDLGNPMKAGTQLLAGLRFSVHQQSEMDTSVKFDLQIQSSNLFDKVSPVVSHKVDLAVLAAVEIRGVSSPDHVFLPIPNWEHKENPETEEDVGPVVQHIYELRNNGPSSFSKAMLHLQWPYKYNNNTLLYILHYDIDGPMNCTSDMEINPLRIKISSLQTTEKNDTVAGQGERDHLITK
T1 sequence (P06756 891-1048 limits assumed): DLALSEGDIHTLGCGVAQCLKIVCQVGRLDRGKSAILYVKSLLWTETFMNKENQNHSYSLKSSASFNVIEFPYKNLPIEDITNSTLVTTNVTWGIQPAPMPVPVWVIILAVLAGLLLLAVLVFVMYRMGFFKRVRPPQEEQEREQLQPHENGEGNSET
T1 sequence (P05106 27-788): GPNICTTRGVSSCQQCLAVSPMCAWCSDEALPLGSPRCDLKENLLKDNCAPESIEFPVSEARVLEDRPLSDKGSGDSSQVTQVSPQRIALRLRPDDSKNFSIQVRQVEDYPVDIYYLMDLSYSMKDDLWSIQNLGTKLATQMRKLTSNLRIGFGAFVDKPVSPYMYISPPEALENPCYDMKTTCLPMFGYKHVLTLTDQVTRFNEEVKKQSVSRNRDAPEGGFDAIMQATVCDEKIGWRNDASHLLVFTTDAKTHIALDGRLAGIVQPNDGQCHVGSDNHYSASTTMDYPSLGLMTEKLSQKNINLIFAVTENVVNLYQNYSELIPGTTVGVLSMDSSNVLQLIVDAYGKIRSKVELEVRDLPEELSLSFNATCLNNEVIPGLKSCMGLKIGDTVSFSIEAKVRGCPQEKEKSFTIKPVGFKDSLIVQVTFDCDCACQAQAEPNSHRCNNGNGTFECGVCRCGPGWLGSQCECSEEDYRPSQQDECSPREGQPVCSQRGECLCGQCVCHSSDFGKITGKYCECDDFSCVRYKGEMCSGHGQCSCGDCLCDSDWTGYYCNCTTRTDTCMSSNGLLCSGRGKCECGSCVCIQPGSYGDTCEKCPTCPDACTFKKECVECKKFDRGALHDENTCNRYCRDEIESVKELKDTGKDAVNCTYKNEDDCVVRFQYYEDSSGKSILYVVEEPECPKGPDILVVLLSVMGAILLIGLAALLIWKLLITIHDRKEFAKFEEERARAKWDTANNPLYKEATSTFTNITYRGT
Description: Pharmacological Test Example 1: αvβ3 Binding Assay
Integrin αvβ3 antagonistic activity was first measured in a vitronectin-vitronectin receptor binding assay system in accordance with the method of Kouns et al. (W. C. Kouns, D. Kirchhofer, P. Hadvary, A. Edenhofer, T. Weller, G. Pfenninger, H. R. Baumgartner, L. K. Jennings and B. Steiner, Blood, 80, 2539-2547 (1992)). […] A 0.1 M citric acid buffer (pH 4.3) containing 0.05% NaN3 was added in an amount of […] to stop the reaction, followed by the measurement of the absorbance at 415 nm with a microplate reader (MTP 32, Corona Electric) (reference: 675 nm). The total binding was defined as the absorbance after a reaction using 50 ml of TBS-Tween instead of the test compound, and the non-specific binding (100% inhibition) was defined as the absorbance after a reaction using 50 ml of TBS-Tween containing 2×10^−3 M RGDS. The inhibition was calculated by the following equation: [formula]
IC50 was determined from a primary regression line of the logarithm of each concentration of the test compound and the logarithm of (100-inhibition)/inhibition.

GP IIb/IIIa, sequence (P08514 32-887 limits assumed): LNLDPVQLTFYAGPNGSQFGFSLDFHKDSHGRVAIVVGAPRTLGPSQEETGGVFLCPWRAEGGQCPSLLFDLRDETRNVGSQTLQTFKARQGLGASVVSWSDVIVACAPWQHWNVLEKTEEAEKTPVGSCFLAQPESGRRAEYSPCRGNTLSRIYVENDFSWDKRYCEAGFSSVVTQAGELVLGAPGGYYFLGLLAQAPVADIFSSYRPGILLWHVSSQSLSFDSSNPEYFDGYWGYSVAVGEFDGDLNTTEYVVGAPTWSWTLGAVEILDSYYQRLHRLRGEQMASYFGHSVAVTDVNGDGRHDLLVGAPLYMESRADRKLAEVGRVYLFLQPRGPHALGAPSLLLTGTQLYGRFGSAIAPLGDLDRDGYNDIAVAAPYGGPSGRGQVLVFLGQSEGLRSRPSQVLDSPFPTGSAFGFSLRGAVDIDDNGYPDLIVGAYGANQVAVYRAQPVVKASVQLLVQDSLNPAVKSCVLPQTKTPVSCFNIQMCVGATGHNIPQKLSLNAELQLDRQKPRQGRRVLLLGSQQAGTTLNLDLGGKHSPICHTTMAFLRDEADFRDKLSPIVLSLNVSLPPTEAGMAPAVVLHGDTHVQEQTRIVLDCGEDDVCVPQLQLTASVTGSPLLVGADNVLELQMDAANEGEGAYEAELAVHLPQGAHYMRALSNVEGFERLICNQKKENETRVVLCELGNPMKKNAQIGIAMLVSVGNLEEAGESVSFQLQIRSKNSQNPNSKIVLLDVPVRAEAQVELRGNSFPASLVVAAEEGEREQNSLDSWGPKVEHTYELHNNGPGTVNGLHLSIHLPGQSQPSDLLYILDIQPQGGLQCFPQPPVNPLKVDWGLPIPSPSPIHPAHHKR
GP IIb/IIIa, sequence (P08514 891-1039 limits assumed): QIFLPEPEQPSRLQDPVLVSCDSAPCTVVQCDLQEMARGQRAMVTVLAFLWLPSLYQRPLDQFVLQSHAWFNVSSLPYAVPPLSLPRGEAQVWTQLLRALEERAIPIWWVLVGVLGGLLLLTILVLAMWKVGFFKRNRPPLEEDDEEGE
GP IIb/IIIa, sequence (P05106 27-788): as the sequence (P05106 27-788) above

| IC50 (GP IIb/IIIa) [nM] | solubility in water (solubility in water) | IC50 [1] [nM] | Compound |
| --- | --- | --- | --- |
| 4.8 | soluble in water | 23 | O=C(NC[C@H](O)C(=O)O)c1ccc(N2CCC(NC3=NCCCN3)CC2)cc1 [Example 6, (2S)-Hydroxy-3-[4-{4-(1,4,5,6-tetrahydropyrimidin-2-ylamino)piperidin-1-yl}benzoylamino]-propionic acid] |
| 12 | soluble in water | 2.8 | O=C(NC[C@H](O)C(=O)O)c1ccc(N2CCC(NC3=NCCCN3)CC2)c(F)c1 [Example 14, 3-[3-Fluoro-4-{4-(1,4,5,6-tetrahydropyrimidin-2-ylamino)piperidin-1-yl}benzoylamino]-(2S)-hydroxypropionic acid] |
